This passage reports Emax, Ki and EC50 results from patent US9447148B2, “Melanocortin-1 receptor-specific cyclic peptides” (Palatin Technologies, Inc., priority 2009, dated 2016).

One test concerns the target hMCR-1 (Homo sapiens (Human), UniProt Q01726). Put plainly: Assay for agonist activity: intracellular cAMP accumulation in HBL human melanoma cells. Format: cell-based. The following applies: for EC50: HBL cells expressing hMCR-1, averaged, read-out: MC-1 EC50 (average; cAMP HBL). Here is the method: Confluent HBL cells that express hMCR-1 or HEK-293 cells that express recombinant hMCR-4 were detached from culture plates by incubation in enzyme-free cell dissociation buffer. Dispersed cells were suspended in Earle's Balanced Salt Solution containing 10 mM HEPES (pH 7.5), 1 mM MgCl2, 1 mM glutamine, 0.5% albumin and 0.3 mM 3-isobutyl-1-methyl-xanthine (IBMX), a phosphodiesterase inhibitor. The cells were plated in 96-well plates at a density of 0.4×10^5 cells per well for HBL cells and 0.5×10^5 cells per well for HEK-293 cells and pre-incubated for 10 minutes. Cells were exposed for 15 minutes at 37° C. to peptides of the present invention dissolved in DMSO (final DMSO concentration of 1%) at a concentration range of 0.05-5000 nM in a total assay volume of 200 μL. […] Data analysis was performed by nonlinear regression analysis with Graph-Pad Prism® software.
(§1) Peptides of the following structures were synthesized and averaged MCR-1 and MCR-4 Ki values were determined as indicated. […] All results are expressed in nM except for Emax values, which are percentage values. Peptides with the captioned primary sequence were synthesized and purified as described in Section 5 above, with the resulting peptide having the structure depicted.

A further test concerns the target hMCR-4 (Homo sapiens (Human), UniProt P32245). Put plainly: Competitive inhibition binding assay using [I125]-NDP-α-MSH, hMCR-4. The settings on record: membrane homogenates of HEK-293 cells, human recombinant receptor, averaged, read-out: MC-4 Ki (average). Here is the method:
(§2) A competitive inhibition binding assay was performed using membrane homogenates prepared from HEK-293 cells that express recombinant hMCR-1a or hMCR-4 (in each instance where the h prefix refers to human), or alternatively membrane homogenates from B16-F10 mouse melanoma cells containing endogenous murine MCR-1. In the examples that follow, all MCR-1 and MCR-4 values are for human recombinant receptors, unless otherwise noted. Assays were performed in 96 well polypropylene round-bottom plates (VWR catalog number 12777-030). […] After incubation for 90 minutes at 37° C., the assay mixture was filtered onto GF/B Unifilter plates (Perkin-Elmer catalog number 6005177) and washed with 3 mL of ice-cold buffer per well. Filters were air dried and 35 μL of scintillation cocktail added to each well. Plates were counted in a Microbeta counter for bound radioactivity. […] Each assay was conducted in duplicate and the actual mean values are described, with results less than 0% reported as 0%. Ki values for peptides of the present invention were determined using Graph-Pad Prism® curve-fitting software.
as §1

Another test addresses hMCR-1a (Homo sapiens (Human), UniProt Q01726). Put plainly: Competitive inhibition binding assay using [I125]-NDP-α-MSH, hMCR-1a. The settings on record: membrane homogenates of HEK-293 cells, human recombinant receptor, averaged, read-out: MC-1 Ki (average). Here is the method:
as §2, §1

Bridge positions count the residues as written; N and C are the ends. Square brackets hold non-standard residues; d marks the D form. Peptide text beside a SMILES is read from it. dPhe(3,4-F2) = N[C@H](Cc1ccc(F)c(F)c1)C(=O)O; dPhe(3-Cl) = N[C@H](Cc1cccc(Cl)c1)C(=O)O; dPhe(4-Cl) = N[C@H](Cc1ccc(Cl)cc1)C(=O)O; dPhe(2-Cl) = N[C@H](Cc1ccccc1Cl)C(=O)O; dPhe(4-F) = N[C@H](Cc1ccc(F)cc1)C(=O)O; dPhe(2-F) = N[C@H](Cc1ccccc1F)C(=O)O; Nle = CCCC[C@H](N)C(=O)O; Orn = NCCC[C@H](N)C(=O)O; Dab = NCC[C@H](N)C(=O)O

In general, Emax refers to the size of the effect at its maximum, as opposed to the concentration needed. Broadly, the Ki is a measure of affinity in units of concentration, obtained from inhibition or displacement. Usually EC50 stands for the concentration giving half of the maximal effect.

hMCR-4, sequence (P32245 whole entry): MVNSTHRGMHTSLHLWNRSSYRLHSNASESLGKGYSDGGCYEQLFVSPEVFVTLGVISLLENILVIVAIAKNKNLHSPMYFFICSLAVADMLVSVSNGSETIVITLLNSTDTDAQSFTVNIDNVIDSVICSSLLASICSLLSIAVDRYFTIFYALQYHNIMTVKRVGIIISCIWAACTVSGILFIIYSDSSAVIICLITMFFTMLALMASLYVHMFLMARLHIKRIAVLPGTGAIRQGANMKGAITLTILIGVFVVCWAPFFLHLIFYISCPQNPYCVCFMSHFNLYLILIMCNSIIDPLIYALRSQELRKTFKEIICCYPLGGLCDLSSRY
hMCR-1a, sequence (Q01726 whole entry): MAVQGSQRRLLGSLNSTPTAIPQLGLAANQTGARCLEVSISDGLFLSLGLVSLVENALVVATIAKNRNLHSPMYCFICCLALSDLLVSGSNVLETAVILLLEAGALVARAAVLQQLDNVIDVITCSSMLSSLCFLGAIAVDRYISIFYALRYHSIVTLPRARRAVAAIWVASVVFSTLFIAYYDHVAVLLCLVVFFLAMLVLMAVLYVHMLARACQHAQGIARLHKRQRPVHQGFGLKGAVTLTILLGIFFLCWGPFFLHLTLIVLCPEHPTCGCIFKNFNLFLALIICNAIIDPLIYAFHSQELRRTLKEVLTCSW
hMCR-1, sequence (Q01726 whole entry): as above

For the compound `CCCC[C@H](NC(C)=O)C(=O)N[C@H]1CCC(=O)NC[C@@H](C(=O)N[C@@H](Cc2c[nH]c3ccccc23)C(=O)O)NC(=O)[C@H](CCCNC(=N)N)NC(=O)[C@@H](Cc2ccccc2)NC(=O)[C@H](Cc2c[nH]cn2)NC1=O` [Example 9.26, Ac-Nle-cyclo(Glu-His-D-Phe-Arg-Dap)-Trp-OH], on hMCR-1 (HBL, HBL cells, maximum efficacy compared to reference agonist NDP-α-MSH, read-out: MC-1 Emax (average; cAMP HBL)), the Emax was determined as 81%. For the same compound, the Ki on hMCR-4 is 4.7 µM; on hMCR-1a, 0.001 µM.
For `CCCC[C@H](NC(C)=O)C(=O)N[C@H]1CCC(=O)NCC[C@@H](C(N)=O)NC(=O)[C@H](CCCNC(=N)N)NC(=O)[C@@H](Cc2ccccc2)NC(=O)[C@H](Cc2c[nH]cn2)NC1=O` [Example 9.32, Ac-Nle-cyclo(Glu-His-D-Phe-Arg-Dab)-NH2] (Ac-[Nle]EH[dF]R[Dab]-NH2; lactam 2-6), the EC50 at hMCR-1 amounted to 0.00032 µM. The Ki was 10 µM on hMCR-4 and 0.007 µM on hMCR-1a.
For `CCCC[C@H](NC(C)=O)C(=O)N[C@H]1CCC(=O)NCC[C@@H](C(N)=O)NC(=O)[C@H](C)NC(=O)[C@@H](Cc2ccccc2)NC(=O)[C@H](Cc2c[nH]cn2)NC1=O` [Example 9.33, Ac-Nle-cyclo(Glu-His-D-Phe-Ala-Dab)-NH2] (Ac-[Nle]EH[dF]A[Dab]-NH2; lactam 2-6) the same measures were 0.044 µM, 10 µM and 0.645 µM.
With `CCCC[C@H](NC(C)=O)C(=O)N[C@H]1CCC(=O)NCC[C@@H](C(=O)N[C@@H](Cc2c[nH]c3ccccc23)C(N)=O)NC(=O)CNC(=O)[C@@H](Cc2ccccc2)NC(=O)[C@H](Cc2c[nH]cn2)NC1=O` [Example 9.34, Ac-Nle-cyclo(Glu-His-D-Phe-Gly-Dab)-Trp-NH2] (Ac-[Nle]EH[dF]G[Dab]W-NH2; lactam 2-6), on hMCR-1, the EC50 came out at 0.004 µM. Also, the Ki came to 10 µM at hMCR-4 and 0.009 µM at hMCR-1a.
For the compound `CCCC[C@H](NC(C)=O)C(=O)N[C@H]1CCC(=O)NCC[C@@H](C(=O)N[C@@H](Cc2c[nH]c3ccccc23)C(N)=O)NC(=O)[C@H](C)NC(=O)[C@@H](Cc2ccccc2)NC(=O)[C@H](Cc2c[nH]cn2)NC1=O` [Example 9.35, Ac-Nle-cyclo(Glu-His-D-Phe-Ala-Dab)-Trp-NH2] (Ac-[Nle]EH[dF]A[Dab]W-NH2; lactam 2-6), the EC50 at hMCR-1 came to 0.000115 µM. The Ki worked out at 10 µM at hMCR-4 and 0.0008 µM at hMCR-1a.
In the case of `CCCC[C@H](NC(C)=O)C(=O)N[C@H]1CCC(=O)NCC[C@@H](C(=O)N[C@@H](CCCCN)C(N)=O)NC(=O)[C@H](CCCNC(=N)N)NC(=O)[C@@H](Cc2ccccc2)NC(=O)[C@H](Cc2c[nH]cn2)NC1=O` [Example 9.39, Ac-Nle-cyclo(Glu-His-D-Phe-Arg-Dab)-Lys-NH2] (Ac-[Nle]EH[dF]R[Dab]K-NH2; lactam 2-6), the EC50 at hMCR-1 was 0.000175 µM. Moreover, the inhibitory constant (Ki) at hMCR-4 is 7.38 µM; on hMCR-1a, 0.002 µM.
Taken in the same sequence, the figures for `CCCC[C@H](NC(C)=O)C(=O)N[C@H]1CCC(=O)NCC[C@@H](C(N)=O)NC(=O)[C@H](CCCNC(=N)N)NC(=O)[C@@H](Cc2ccccc2Cl)NC(=O)[C@H](CCCN)NC1=O` [Example 9.57, Ac-Nle-cyclo(Glu-Orn-D-Phe(2-Cl)-Arg-Dab)-NH2] (Ac-[Nle]E[Orn][dPhe(2-Cl)]R[Dab]-NH2; lactam 2-6) were 0.001 µM, 10 µM and 0.03 µM.
Taken in the same sequence, the figures for `CCCC[C@H](NC(C)=O)C(=O)N[C@H]1CCC(=O)NCC[C@@H](C(N)=O)NC(=O)[C@H](CCCNC(=N)N)NC(=O)[C@@H](Cc2cccc(Cl)c2)NC(=O)[C@H](CCCN)NC1=O` [Example 9.58, Ac-Nle-cyclo(Glu-Orn-D-Phe(3-Cl)-Arg-Dab)-NH2] (Ac-[Nle]E[Orn][dPhe(3-Cl)]R[Dab]-NH2; lactam 2-6) were 0.002 µM, 10 µM and 0.035 µM.
For `CCCC[C@H](NC(C)=O)C(=O)N[C@H]1CCC(=O)NCC[C@@H](C(N)=O)NC(=O)[C@H](CCCNC(=N)N)NC(=O)[C@@H](Cc2ccc(Cl)cc2)NC(=O)[C@H](CCCN)NC1=O` [Example 9.59, Ac-Nle-cyclo(Glu-Orn-D-Phe(4-Cl)-Arg-Dab)-NH2] (Ac-[Nle]E[Orn][dPhe(4-Cl)]R[Dab]-NH2; lactam 2-6) the same measures were 0.0001 µM, 1.24 µM and 0.002 µM.
With `CCCC[C@H](NC(C)=O)C(=O)N[C@H]1CCC(=O)NCC[C@@H](C(N)=O)NC(=O)[C@H](CCCNC(=N)N)NC(=O)[C@@H](Cc2ccccc2F)NC(=O)[C@H](CCCN)NC1=O` [Example 9.60, Ac-Nle-cyclo(Glu-Orn-D-Phe(2-F)-Arg-Dab)-NH2] (Ac-[Nle]E[Orn][dPhe(2-F)]R[Dab]-NH2; lactam 2-6), at hMCR-1, the EC50 stood at 0.0008 µM. Further, the Ki at hMCR-4 was 10 µM; at hMCR-1a it was 0.018 µM.
For `CCCC[C@H](NC(C)=O)C(=O)N[C@H]1CCC(=O)NCC[C@@H](C(N)=O)NC(=O)[C@H](CCCNC(=N)N)NC(=O)[C@@H](Cc2ccc(F)cc2)NC(=O)[C@H](CCCN)NC1=O` [Example 9.61, Ac-Nle-cyclo(Glu-Orn-D-Phe(4-F)-Arg-Dab)-NH2] (Ac-[Nle]E[Orn][dPhe(4-F)]R[Dab]-NH2; lactam 2-6) the same measures were 0.001 µM, 10 µM and 0.02 µM.
Taken in the same sequence, the figures for `CCCC[C@H](NC(C)=O)C(=O)N[C@H]1CCC(=O)NCC[C@@H](C(N)=O)NC(=O)[C@H](CCCNC(=N)N)NC(=O)[C@@H](Cc2ccc(F)c(F)c2)NC(=O)[C@H](CCCN)NC1=O` [Example 9.62, Ac-Nle-cyclo(Glu-Orn-D-Phe(3,4-F)-Arg-Dab)-NH2] (Ac-[Nle]E[Orn][dPhe(3,4-F2)]R[Dab]-NH2; lactam 2-6) were 0.001 µM, 10 µM and 0.04 µM.
Taken in the same sequence, the figures for `CCCC[C@H](NC(C)=O)C(=O)N[C@H]1CCC(=O)NCC[C@@H](C(N)=O)NC(=O)[C@H](CCCNC(=N)N)NC(=O)[C@@H](Cc2ccc(OC)cc2)NC(=O)[C@H](CCCN)NC1=O` [Example 9.64, Ac-Nle-cyclo(Glu-Orn-D-Phe(4-OMe)-Arg-Dab)-NH2] (Ac-[Nle]E[Orn][dY](Me)R[Dab]-NH2; lactam 2-6) were 0.00012 µM, 10 µM and 0.002 µM.
